Assay results as given in patent US20060069132A1, “Azolecarboxamide herbicides” (priority 2004, published 2006).

How the values were obtained:
barnyardgrass [1] = assay: Test A pre-/postemergence herbicide test; type: in vivo, Echinochloa crus-galli; conditions: for Plant response rating, Barnyardgrass: Postemergence; for Barnyardgrass plant response rating: Preemergence
Method in brief: (§1)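 Sandy loam soil given preemergence directed spray; plants at 2 to 10 cm, one- to two-leaf stage, sprayed to runoff postemergence, compounds in non-phytotoxic solvent with surfactant. Injury rated visually versus untreated controls after about ten greenhouse days, 0 (no effect) to 100 (complete control); dash means not tested.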

large crabgrass [2] = assay: Test A pre-/postemergence herbicide test; type: in vivo, Digitaria sanguinalis; conditions: for Plant response rating, Crabgrass, Large: Postemergence; for Crabgrass, Large plant response rating: Preemergence
Method in brief: as §1

giant foxtail [3] = assay: Test A pre-/postemergence herbicide test; type: in vivo, Setaria faberi; conditions: for Plant response rating, Foxtail, Giant: Postemergence; for Foxtail, Giant plant response rating: Preemergence
Method in brief: as §1

morningglory [4] = assay: Test A pre-/postemergence herbicide test; type: in vivo, Ipomoea spp.; conditions: for Plant response rating, Morningglory: Postemergence; for Morningglory plant response rating: Preemergence
Method in brief: as §1

redroot pigweed = assay: Test A pre-/postemergence herbicide test; type: in vivo, Amaranthus retroflexus; conditions: for Plant response rating, Pigweed: Postemergence; for Pigweed plant response rating: Preemergence
Method in brief: as §1

velvetleaf [5] = assay: Test A pre-/postemergence herbicide test; type: in vivo, Abutilon theophrasti; conditions: for Plant response rating, Velvetleaf: Postemergence; for Velvetleaf plant response rating: Preemergence
Method in brief: as §1

barnyardgrass [6] = assay: Test B pre-/postemergence herbicide test; type: in vivo, Echinochloa crus-galli
Method in brief: (§2)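 Pre: seeds sown, then sprayed. Post: 1–4-leaf plants (2–18 cm) sprayed at the same time. Paddy: flooded, treated at 2-leaf stage. Formulation: non-phytotoxic solvent with surfactant. Greenhouse 13–15 days; visual 0–100 score relative to controls.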

Surinam grass = assay: Test B pre-/postemergence herbicide test; type: in vivo, Urochloa decumbens
Method in brief: (§3)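 Flooded paddy rice and barnyardgrass were treated at the 2-leaf stage; upland plantings received compound either on sown seed or on 1- to 4-leaf seedlings. All were kept 13–15 days in a greenhouse and scored visually, 0–100, relative to untreated plants.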

cocklebur = assay: Test B pre-/postemergence herbicide test; type: in vivo, Xanthium strumarium
Method in brief: as §2

corn = assay: Test B pre-/postemergence herbicide test; type: in vivo, Zea mays; conditions: Preemergence, 500 g ai/ha; scale 0 to 100
Method in brief: as §3

large crabgrass [7] = assay: Test B pre-/postemergence herbicide test; type: in vivo, Digitaria sanguinalis
Method in brief: as §3

giant foxtail [8] = assay: Test B pre-/postemergence herbicide test; type: in vivo, Setaria faberi
Method in brief: as §3

lambsquarters = assay: Test B pre-/postemergence herbicide test; type: in vivo, Chenopodium album
Method in brief: as §3

morningglory [9] = assay: Test B pre-/postemergence herbicide test; type: in vivo, Ipomoea coccinea
Method in brief: as §2

pigweed = assay: Test B pre-/postemergence herbicide test; type: in vivo, Amaranthus retroflexus
Method in brief: as §3

velvetleaf [10] = assay: Test B pre-/postemergence herbicide test; type: in vivo, Abutilon theophrasti
Method in brief: as §3

blackgrass = assay: Test B postemergence herbicide test; type: in vivo, Alopecurus myosuroides; conditions: Postemergence, scale 0 (no effect) to 100 (complete control)
Method in brief: (§4)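 Read-out: visual comparison with controls, scored 0 to 100, where 100 means complete control and 0 no effect. Formulated chemicals were applied postemergence to plants 2–18 cm tall (1- to 4-leaf), or to flooded-paddy plants at the 2-leaf stage, then held 13 to 15 days under glass.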

wheat = assay: Test B postemergence herbicide test; type: in vivo, Triticum aestivum; conditions: Postemergence, 500 g ai/ha; visual rating after 13 to 15 days, scale 0 (no effect) to 100 (complete control)
Method in brief: (§5)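 Greenhouse test; postemergence application to plants at 1–4 leaves (2–18 cm); paddy species at 2 leaves; evaluated visually vs controls at 13–15 days; scale 0–100 (100 = complete control).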

wild oat = assay: Test B postemergence herbicide test; type: in vivo, Avena fatua; conditions: Postemergence, scale 0 (no effect) to 100 (complete control)
Method in brief: as §5

rice = assay: Test B flooded paddy test; type: in vivo, Oryza sativa; conditions: 1000 g ai/ha, visual rating, scale 0 to 100 (0 no effect, 100 complete control), 13 to 15 days
Method in brief: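 After treating 2-leaf paddy plants or 2–18 cm postemergence plants (1 to 4 leaves) with formulated chemical, researchers kept them in a greenhouse for 13–15 days. Effects were judged visually versus controls: 0 indicates none, 100 total control.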

[11] = system: small flower umbrella sedge; assay: Test B flooded paddy test; type: in vivo, Cyperus difformis; conditions: 1000 g ai/ha, visual rating, scale 0 to 100 (0 no effect, 100 complete control), 13 to 15 days
Method in brief: as §4

ducksalad = assay: Test B flooded paddy test; type: in vivo, Heteranthera limosa; conditions: 1000 g ai/ha, visual rating, scale 0 to 100 (0 no effect, 100 complete control), 13 to 15 days
Method in brief: as §4

barnyardgrass [12] = assay: Test B flooded paddy test; type: in vivo, Echinochloa crus-galli; conditions: 1000 g ai/ha, visual rating, scale 0 to 100 (0 no effect, 100 complete control), 13 to 15 days
Method in brief: as §4

[13] = 500 g ai/ha, 0 to 100 scale, 0 no effect, 100 complete control
[14] = 2000 g ai/ha, 0 to 100 scale, 0 no effect, 100 complete control
[15] = 500 g ai/ha, visual rating, 0 to 100 scale (0 no effect, 100 complete control)
[16] = Postemergence, 125 g ai/ha, scale 0 (no effect) to 100 (complete control)
[17] = Postemergence, 500 g ai/ha, visual rating after 13 to 15 days, scale 0 (no effect) to 100 (complete control)
[18] = Preemergence, 500 g ai/ha, scale 0 to 100
[19] = preemergence, 125 g ai/ha, 0 to 100 scale, 0 is no effect, 100 is complete control
[20] = 500 g ai/ha, visual rating after 13 to 15 days

CCN(CC)C(=O)c1cccc(NC(=O)c2cc(C(C)(C)C)nn2CCF)c1 [Compound 36]
95: Pigweed plant response rating (redroot pigweed; [15])
5: Foxtail, Giant plant response rating (giant foxtail [3]; [15])
40: Plant response rating, Velvetleaf (velvetleaf [10]; [17]) | Rice plant response rating (rice)
45: Barnyardgrass plant response rating (barnyardgrass [1]; [15])
100: Pigweed plant response rating (redroot pigweed; [14]) | Lambsquarters plant response rating (lambsquarters; [18]) | Pigweed plant response rating (pigweed; [18])
15: Plant response rating, Velvetleaf (velvetleaf [5]; [13])
85: Foxtail, Giant plant response rating (giant foxtail [3]; [14]) | Plant response rating, Pigweed (redroot pigweed; [14])
0: Cocklebur plant response rating (cocklebur; [18]) | Plant response rating, Foxtail, Giant (giant foxtail [8]; [19])
90: Velvetleaf plant response rating (velvetleaf [5]; [14]) | Plant response rating, Lambsquarters (lambsquarters; [17]) | Plant response rating, Pigweed (pigweed; [17]) | Plant response rating, Pigweed (pigweed; [19]) | Ducksalad plant response rating (ducksalad)
35: Plant response rating, Barnyardgrass (barnyardgrass [1]; [13]) | Plant response rating, Foxtail, Giant (giant foxtail [3]; [14])
10: Plant response rating, Crabgrass, Large (large crabgrass [2]; [13]) | Plant response rating, Crabgrass, Large (large crabgrass [2]; [14]) | Crabgrass, Large plant response rating (large crabgrass [2]; [15]) | Plant response rating, Morningglory (morningglory [4]; [13]) | Plant response rating, Morningglory (morningglory [4]; [14]) | Plant response rating, Surinam Grass (Surinam grass; [17]) | Plant response rating, Surinam Grass (Surinam grass; [19]) | Corn plant response rating (corn) | Morningglory plant response rating (morningglory [9]; [18]) | Plant response rating, Morningglory (morningglory [9]; [19]) | Blackgrass plant response rating (blackgrass; 125 g ai/ha)
80: Plant response rating, Barnyardgrass (barnyardgrass [1]; [14]) | Plant response rating, Pigweed (redroot pigweed; [13]) | Barnyardgrass plant response rating (barnyardgrass [6]; [18]) | Lambsquarters plant response rating (lambsquarters; [16]) | Plant response rating, Lambsquarters (lambsquarters; [19])
20: Plant response rating, Foxtail, Giant (giant foxtail [3]; [13]) | Morningglory plant response rating (morningglory [4]; [15]) | Plant response rating, Velvetleaf (velvetleaf [5]; [14]) | Velvetleaf plant response rating (velvetleaf [5]; [15]) | Barnyardgrass plant response rating (barnyardgrass [6]; [16]) | Plant response rating, Barnyardgrass (barnyardgrass [6]; [17]) | Crabgrass, Large plant response rating (large crabgrass [7]; [16]) | Plant response rating, Crabgrass, Large (large crabgrass [7]; [17]) | Crabgrass, Large plant response rating (large crabgrass [7]; [18]) | Foxtail, Giant plant response rating (giant foxtail [8]; [16]) | Plant response rating, Velvetleaf (velvetleaf [10]; [19]) | Plant response rating, Blackgrass (blackgrass; [20]) | Oat, Wild plant response rating (wild oat; 125 g ai/ha) | Plant response rating, Oat, Wild (wild oat; [20])
60: Sedge, Umbrella plant response rating [11]
75: Barnyardgrass plant response rating (barnyardgrass [1]; [14])
50: Surinam Grass plant response rating (Surinam grass; [18]) | Plant response rating, Cocklebur (cocklebur; [17]) | Velvetleaf plant response rating (velvetleaf [10]; [18])
30: Cocklebur plant response rating (cocklebur; [16]) | Plant response rating, Foxtail, Giant (giant foxtail [8]; [17]) | Foxtail, Giant plant response rating (giant foxtail [8]; [18]) | Plant response rating, Wheat (wheat)
70: Crabgrass, Large plant response rating (large crabgrass [2]; [14]) | Morningglory plant response rating (morningglory [4]; [14]) | Barnyardgrass plant response rating (barnyardgrass [12])
